From patent US9096565B2, “Inhibitors of histone deacetylase” (MethylGene Inc., priority 2007, dated 2015)

Each molecule was assayed against one or more of HDAC-4, HDAC-5, HDAC-6, HDAC-7, HDAC-8, HDAC-9, HDAC-10 and HDAC-11 (assay: Inhibition of histone deacetylase enzymatic activity (summary statement over isoforms)). Conditions: Table 3, selected examples; HDAC isoform not given.
Format: biochemical
Outline: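 Activity was measured as deacetylation of the fluorogenic substrate Boc-Lys(trifluoroacetyl)-AMC over 20-30 min at 37 °C, after a 5 min room-temperature preincubation of enzyme with compound. Trypsin (1 mg/mL) with a reference HDAC inhibitor ended the reaction.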

IC50 [nM] | SMILES
< 1000 | CC(C)=CCOc1cccc(C(C(=O)NO)c2ccccc2)c1 (stereo not shown) [Compound 3-5, N-hydroxy-2-(3-(3-methylbut-2-enyloxy)phenyl)-2-phenylacetamide]
< 1000 | COc1ccc(COc2cccc(C(C(=O)NO)c3ccccc3)c2)cc1 (stereo not shown) [Compound 3-6, N-hydroxy-2-(3-(4-methoxybenzyloxy)phenyl)-2-phenylacetamide]
1000 to 15000 | CC(Oc1cccc(C(C(=O)NO)c2ccccc2)c1)c1ccccc1 (stereo not shown) [Compound 3-8, N-hydroxy-2-phenyl-2-(3-(1-phenylethoxy)phenyl)acetamide]
< 1000 | O=C(NO)C(c1ccccc1)c1cccc(OC/C=C/c2ccccc2)c1 (stereo not shown) [Compound 3-9, (E)-2-(3-(cinnamyloxy)phenyl)-N-hydroxy-2-phenylacetamide]
< 1000 | O=C(NO)C(c1ccccc1)c1cccc(OCc2cccc(Cl)c2)c1 (stereo not shown) [Compound 3-10, 2-(3-(3-chlorobenzyloxy)phenyl)-N-hydroxy-2-phenylacetamide]
< 1000 | O=C(NO)C(c1ccccc1)c1cccc(N2CCN(Cc3ccncc3)CC2)c1 (stereo not shown) [Compound 3-12, N-hydroxy-2-phenyl-2-(3-(4-(pyridin-4-ylmethyl)piperazin-1-yl)phenyl)acetamide]
< 1000 | CC(=O)Nc1ccc(C(C(=O)NO)c2ccccc2)cc1 (stereo not shown) [Compound 3-13, 2-(4-acetamidophenyl)-N-hydroxy-2-phenylacetamide]
1000 to 15000 | O=C(Nc1cccc(C(C(=O)NO)c2ccccc2)c1)c1ccnc(Cl)c1 (stereo not shown) [Compound 3-14, 2-chloro-N-(3-(2-(hydroxyamino)-2-oxo-1-phenylethyl)phenyl)isonicotinamide]
< 1000 | CN(C)CCCOc1cccc(C(C(=O)NO)c2ccccc2)c1 (stereo not shown) [Compound 3-15, 2-(3-(3-(dimethylamino)propoxy)phenyl)-N-hydroxy-2-phenylacetamide]
< 1000 | CN(C)CCCOc1ccc(C(C(=O)NO)c2ccccc2)cc1 (stereo not shown) [Compound 3-16, 2-(4-(3-(dimethylamino)propoxy)phenyl)-N-hydroxy-2-phenylacetamide]
< 1000 | CC(COc1cccc(C(C(=O)NO)c2ccccc2)c1)CN(C)C (stereo not shown) [Compound 3-17, 2-(3-(3-(dimethylamino)-2-methylpropoxy)phenyl)-N-hydroxy-2-phenylacetamide]
1000 to 15000 | CC(COc1ccc(C(C(=O)NO)c2ccccc2)cc1)CN(C)C (stereo not shown) [Compound 3-18, 2-(4-(3-(dimethylamino)-2-methylpropoxy)phenyl)-N-hydroxy-2-phenylacetamide]
< 1000 | O=C(NO)C(c1ccccc1)c1cccc(OCCN2CCCC2)c1 (stereo not shown) [Compound 3-19, N-hydroxy-2-phenyl-2-(3-(2-(pyrrolidin-1-yl)ethoxy)phenyl)acetamide]
< 1000 | CN1CCCC1CCOc1cccc(C(C(=O)NO)c2ccccc2)c1 (stereo not shown) [Compound 3-20, N-hydroxy-2-(3-(2-(1-methylpyrrolidin-2-yl)ethoxy)phenyl)-2-phenylacetamide]
1000 to 15000 | COc1cccc(C(C(=O)NO)c2ccccc2)c1 (stereo not shown) [Compound 3-21, N-hydroxy-2-(3-methoxyphenyl)-2-phenylacetamide]
< 1000 | CCOc1cccc(C(C(=O)NO)c2ccccc2)c1 (stereo not shown) [Compound 3-22, 2-(3-ethoxyphenyl)-N-hydroxy-2-phenylacetamide]
1000 to 15000 | C=CCOc1cccc(C(C(=O)NO)c2ccccc2)c1 (stereo not shown) [Compound 3-24, 2-(3-(allyloxy)phenyl)-N-hydroxy-2-phenylacetamide]
1000 to 15000 | O=C(NO)C(c1ccccc1)c1cccc(OCC2CC2)c1 (stereo not shown) [Compound 3-25, 2-(3-(cyclopropylmethoxy)phenyl)-N-hydroxy-2-phenylacetamide]
1000 to 15000 | C=CCCOc1cccc(C(C(=O)NO)c2ccccc2)c1 (stereo not shown) [Compound 3-26, 2-(3-(but-3-enyloxy)phenyl)-N-hydroxy-2-phenylacetamide]
1000 to 15000 | COCCOc1cccc(C(C(=O)NO)c2ccccc2)c1 (stereo not shown) [Compound 3-27, N-hydroxy-2-(3-(2-methoxyethoxy)phenyl)-2-phenylacetamide]
1000 to 15000 | O=C(NO)C(c1ccccc1)c1cccc(OC2CCCC2)c1 (stereo not shown) [Compound 3-29, 2-(3-(cyclopentyloxy)phenyl)-N-hydroxy-2-phenylacetamide]
1000 to 15000 | CC(C)CCOc1cccc(C(C(=O)NO)c2ccccc2)c1 (stereo not shown) [Compound 3-30, N-hydroxy-2-(3-(isopentyloxy)phenyl)-2-phenylacetamide]
1000 to 15000 | O=C(NO)C(c1ccccc1)c1cccc(OCC2CCCCC2)c1 (stereo not shown) [Compound 3-32, 2-(3-(cyclohexylmethoxy)phenyl)-N-hydroxy-2-phenylacetamide]
1000 to 15000 | Cc1cccc(COc2cccc(C(C(=O)NO)c3ccccc3)c2)c1 (stereo not shown) [Compound 3-33, N-hydroxy-2-(3-(3-methylbenzyloxy)phenyl)-2-phenylacetamide]
< 1000 | O=C(NO)C(c1ccccc1)c1cccc(OCc2ccccc2F)c1 (stereo not shown) [Compound 3-34, 2-(3-(2-fluorobenzyloxy)phenyl)-N-hydroxy-2-phenylacetamide]

The remaining lines, values behind:

SMILES | IC50 [nM]
O=C(NO)C(c1ccccc1)c1cccc(C#Cc2cccnc2)c1 (stereo not shown) [Compound 2-95, N-hydroxy-2-phenyl-2-(3-(pyridin-3-ylethynyl)phenyl)acetamide] | < 1000
O=C(NO)C(c1ccccc1)c1cccc(C#CCC2CCCC2)c1 (stereo not shown) [Compound 2-96, 2-(3-(3-cyclopentylprop-1-ynyl)phenyl)-N-hydroxy-2-phenylacetamide] | < 1000
O=C(NO)C(c1ccccc1)c1ccc(C#Cc2ccccc2)cc1 (stereo not shown) [Compound 2-97, N-hydroxy-2-phenyl-2-(4-(phenylethynyl)phenyl)acetamide] | < 1000
O=C(NO)C(c1ccccc1)c1ccc(C#CCC2CCCC2)cc1 (stereo not shown) [Compound 2-98, 2-(4-(3-cyclopentylprop-1-ynyl)phenyl)-N-hydroxy-2-phenylacetamide] | < 1000
CCCCOc1ccc(C#Cc2ccc(C(C(=O)NO)c3ccccc3)cc2)cc1 (stereo not shown) [Compound 2-99, 2-(4-((4-butoxyphenyl)ethynyl)phenyl)-N-hydroxy-2-phenylacetamide] | < 1000
O=C(NO)C(c1ccccc1)c1cccc(-c2ccc(Oc3ccccc3)cc2)c1 (stereo not shown) [Compound 2-100, N-hydroxy-2-(4′-phenoxybiphenyl-3-yl)-2-phenylacetamide] | 1000 to 15000
CCCc1cccc(C(C(=O)NO)c2ccccc2)c1 (stereo not shown) [Compound 2-101, N-hydroxy-2-phenyl-2-(3-propylphenyl)acetamide] | < 1000
CCc1ccc(-c2cccc(C(C(=O)NO)c3ccccc3)c2)cc1 (stereo not shown) [Compound 2-102, 2-(4′-ethylbiphenyl-3-yl)-N-hydroxy-2-phenylacetamide] | < 1000
O=C(NO)C(c1ccccc1)c1cccc(-c2ccc(Cl)cc2)c1 (stereo not shown) [Compound 2-103, 2-(4′-chlorobiphenyl-3-yl)-N-hydroxy-2-phenylacetamide] | < 1000
O=C(NO)C(c1ccccc1)c1cccc(-c2ccc3c(c2)CCO3)c1 (stereo not shown) [Compound 2-104, 2-(3-(2,3-dihydrobenzofuran-5-yl)phenyl)-N-hydroxy-2-phenylacetamide] | < 1000
CN(C)c1ccc(-c2cccc(C(C(=O)NO)c3ccccc3)c2)cc1 (stereo not shown) [Compound 2-105, 2-(4′-(dimethylamino)biphenyl-3-yl)-N-hydroxy-2-phenylacetamide] | < 1000
COc1ccc(-c2cccc(C(C(=O)NO)c3ccccc3)c2)cc1OC (stereo not shown) [Compound 2-106, 2-(3′,4′-dimethoxybiphenyl-3-yl)-N-hydroxy-2-phenylacetamide] | < 1000
CCSc1ccc(-c2cccc(C(C(=O)NO)c3ccccc3)c2)cc1 (stereo not shown) [Compound 2-107, 2-(4′-(ethylthio)biphenyl-3-yl)-N-hydroxy-2-phenylacetamide] | < 1000
O=C(NO)C(c1ccccc1)c1cccc(-c2ccccc2C(F)(F)F)c1 (stereo not shown) [Compound 2-108, N-hydroxy-2-phenyl-2-(2′-(trifluoromethyl)biphenyl-3-yl)acetamide] | < 1000
CN(C)C(=O)c1ccc(-c2cccc(C(C(=O)NO)c3ccccc3)c2)cc1 (stereo not shown) [Compound 2-109, 3′-(2-(hydroxyamino)-2-oxo-1-phenylethyl)-N,N-dimethylbiphenyl-4-carboxamide] | < 1000
CS(=O)(=O)c1ccc(-c2cccc(C(C(=O)NO)c3ccccc3)c2)cc1 (stereo not shown) [Compound 2-110, N-hydroxy-2-(4′-(methylsulfonyl)biphenyl-3-yl)-2-phenylacetamide] | < 1000
CCc1ccc(-c2ccc(C(C(=O)NO)c3ccccc3)cc2)cc1 (stereo not shown) [Compound 2-111, 2-(4′-ethylbiphenyl-4-yl)-N-hydroxy-2-phenylacetamide] | < 1000
O=C(NO)C(c1ccccc1)c1ccc(-c2ccc(Cl)cc2)cc1 (stereo not shown) [Compound 2-112, 2-(4′-chlorobiphenyl-4-yl)-N-hydroxy-2-phenylacetamide] | < 1000
O=C(NO)C(c1ccccc1)c1ccc(-c2ccc3c(c2)CCO3)cc1 (stereo not shown) [Compound 2-113, 2-(4-(2,3-dihydrobenzofuran-5-yl)phenyl)-N-hydroxy-2-phenylacetamide] | < 1000
COc1ccc(-c2ccc(C(C(=O)NO)c3ccccc3)cc2)cc1OC (stereo not shown) [Compound 2-114, 2-(3′,4′-dimethoxybiphenyl-4-yl)-N-hydroxy-2-phenylacetamide] | < 1000
CCSc1ccc(-c2ccc(C(C(=O)NO)c3ccccc3)cc2)cc1 (stereo not shown) [Compound 2-115, 2-(4′-(ethylthio)biphenyl-4-yl)-N-hydroxy-2-phenylacetamide] | < 1000
CN(C)C(=O)c1ccc(-c2ccc(C(C(=O)NO)c3ccccc3)cc2)cc1 (stereo not shown) [Compound 2-116, 4′-(2-(hydroxyamino)-2-oxo-1-phenylethyl)-N,N-dimethylbiphenyl-4-carboxamide] | < 1000
O=C(NO)C(c1ccccc1)c1ccc(-c2ccc(Oc3ccccc3)cc2)cc1 (stereo not shown) [Compound 2-117, N-hydroxy-2-(4′-phenoxybiphenyl-4-yl)-2-phenylacetamide] | < 1000
CCC(CC)COc1cccc(C(C(=O)NO)c2ccccc2)c1 (stereo not shown) [Compound 3-31, 2-(3-(2-ethylbutoxy)phenyl)-N-hydroxy-2-phenylacetamide] | 1000 to 15000
